Several values for one entry are separate records, joined by “and”; a condition that tells them apart may be missing. Equal entries are not always repeated.
Molecular target: Tyrosine-protein kinase JAK2 (Homo sapiens, UniProt O60674)
Experiment: Jak2 Tyrosine Kinase Assay: The assays were performed in V-bottom 384-well plates. The final assay volume was 30 μl prepared from 15 μl additions of enzyme and substrates (fluoresceinated peptide and ATP) and test compounds in assay buffer (100 mM HEPES pH 7.4, 10 mM MgCl2, 25 mM beta-glycerolphosphate, […] Brij 35 surfactant and 4 mM DTT). The reaction was initiated by the combination of Jak2

Chain of Tyrosine-protein kinase JAK2 (O60674 whole entry): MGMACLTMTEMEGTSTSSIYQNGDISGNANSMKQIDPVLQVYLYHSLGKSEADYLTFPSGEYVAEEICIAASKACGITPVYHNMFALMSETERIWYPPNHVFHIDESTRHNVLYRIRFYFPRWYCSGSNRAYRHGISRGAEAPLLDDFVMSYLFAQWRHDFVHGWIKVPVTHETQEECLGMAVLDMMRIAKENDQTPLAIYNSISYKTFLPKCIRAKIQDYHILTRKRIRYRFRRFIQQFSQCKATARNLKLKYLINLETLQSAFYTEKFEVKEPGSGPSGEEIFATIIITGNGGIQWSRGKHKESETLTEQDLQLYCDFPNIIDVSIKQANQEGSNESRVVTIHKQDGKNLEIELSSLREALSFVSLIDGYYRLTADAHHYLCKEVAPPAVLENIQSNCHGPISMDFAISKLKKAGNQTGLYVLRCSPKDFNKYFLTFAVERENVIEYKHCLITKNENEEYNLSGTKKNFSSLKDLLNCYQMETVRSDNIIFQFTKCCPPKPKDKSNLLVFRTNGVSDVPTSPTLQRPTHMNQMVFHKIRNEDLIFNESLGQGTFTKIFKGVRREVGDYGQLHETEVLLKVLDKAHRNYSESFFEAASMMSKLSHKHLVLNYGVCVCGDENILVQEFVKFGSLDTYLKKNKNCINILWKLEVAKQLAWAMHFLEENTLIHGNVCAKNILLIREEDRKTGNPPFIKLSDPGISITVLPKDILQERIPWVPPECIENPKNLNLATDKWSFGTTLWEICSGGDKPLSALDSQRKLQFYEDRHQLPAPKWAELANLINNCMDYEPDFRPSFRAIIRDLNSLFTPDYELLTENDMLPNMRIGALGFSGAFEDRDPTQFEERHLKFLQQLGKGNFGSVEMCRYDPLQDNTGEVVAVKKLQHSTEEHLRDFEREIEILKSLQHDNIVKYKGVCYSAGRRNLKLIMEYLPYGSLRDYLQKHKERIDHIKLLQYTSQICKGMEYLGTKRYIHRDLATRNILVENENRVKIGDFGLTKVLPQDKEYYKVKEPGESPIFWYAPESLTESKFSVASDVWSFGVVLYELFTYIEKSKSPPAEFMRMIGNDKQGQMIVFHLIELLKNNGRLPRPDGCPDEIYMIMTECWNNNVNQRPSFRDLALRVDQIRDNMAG

IC50 | SMILES
1400 nM and 970 nM | Cc1c(-c2c(Cl)cc(C(N)=O)c3[nH]c4cc(C(C)(C)O)ccc4c23)cccc1-n1c(=O)cc2c(Cl)cccn2c1=O
1700 nM | Cc1c(-c2c(F)cc(C(N)=O)c3[nH]c4cc(C(C)(C)O)ccc4c23)cccc1-n1c(=O)[nH]c2c(F)cccc2c1=O

From ChEMBL document CHEMBL3886711, “Substituted tetrahydrocarbazole and carbazole carboxamide compounds” (2016)
